This note sets out measurements from patent US20240331158A1, “CELL PAINTING AND ANALYSIS IN 3D CELLULAR MODELS” (priority 2023, published 2024).

The subject of test [1] is TU-BcX-4IC tumoroids. Nature of the test: Cell Painting assay adapted for 3D tumoroids, phenotypic distance score and cluster analysis. The following applies: 10 μM, phenotypic distance relative to DMSO controls.
Experimental: For phenotypic profiling, the tumoroids were treated with a single 10 μM concentration of compound, using the methods described above. Notable changes in the staining protocol included increased times for dye incubation, fixation, and permeabilization. […] Images were acquired with Z-stacks using 20× magnification, and the analysis was carried out on projection (maximum) images.
Unlike the previous analysis that included cell count or live-dead evaluation, multiple read-outs may be collected from the whole spheroid to form their phenotypic profile. […] Instead, the spheroid images may also acquired in transmitted light (bright field), and these images may be used to identify the spheroid structures using a deep learning-based image segmentation approach which may improve the analysis. Features extracted from each spheroid may include object morphologies, intensities, and texture measurements for, e.g., the six cell stains and bright field images.
To determine hits from the assay, a phenotypic distance score may be calculated based on the PCA (principal component analysis) components.
This score is a measure of the phenotypic effect of the compounds on the tumoroids relative to the controls. All hits may then be clustered based on their phenotypic profiles using the normalized principal component scores.
To image the organoids labeled with the cell painting dyes, the ImageXpress Confocal HT.ai system, equipped with a laser light source, was used for image acquisition. The confocal mode (pinhole size 60 μm) was used to image organoids with a 20× Plan Apo Lambda, NA 0.75 objective, with z-stacking enabled (5p m step size). The maximum projection image was selected in the acquisition setup.
Images were analyzed using MetaXpress Software (Molecular Devices). […] For the Cell Painting analysis, image analysis was done in the IN Carta image analysis software. To segment the organoids, a deep learning-based model was created based on the TL channel to segment individual organoids. Following segmentation, measurements that include intensity, shape, area, and texture were extracted from all 6 fluorescent channels. In total, 210 analytical features were obtained from each organoid.
The plate was first incubated with MitoTracker DeepRed (500 nM) for 2 hours. The samples were fixed with 4% paraformaldehyde (PFA) in HBSS for 60 minutes. All wash steps were carried out by exchanging half the volume in each well with HBSS to minimize displacement of the organoids from the center of the well.
Measurements from IN Carta were exported as a CSV file and uploaded into StratoMineR (Core Life Analytica), a web-based data analytics platform for hit picking and phenotypic clustering.
Test [2] relates to TU-BcX-4IC tumoroids. Nature of the test: Library screening of NCI approved anti-cancer drugs: tumoroid integrity/disintegration by nuclear count in projection images (viability/spheroid disintegration assay). Particulars: for Viability HIT?: also hit in viability/spheroid disintegration assay, 10 μM; for minimal effective concentration: Homo sapiens, TU-BcX-4IC, 120 h.
Experimental: In addition, positive and negative controls were included in the test plates.
During incubation with compounds, tumoroids were monitored daily using TL imaging. Image analysis allowed characterization of tumoroid size, diameter, compactness, and integrity, as well as optical density (FIG. 2B, FIG. 7). Images of tumoroids were taken prior to compound treatment, and during day 3 and day 5 of compound treatment. For the end point assay, tumoroids were stained with viability and nuclear dyes on day 5 of compound treatment. Cells were stained with a combination of Hoechst, calcein AM, and Ethidium Homodimer III (EthD-III) and analyzed using high content imaging for complex phenotypic analysis; a subset of plates was set aside for additional assays including Cell Painting.
Images of organoids were taken with a 10× objective using Z-stack with a step size of 8 mm. Nuclei, live cells, and dead cells of stained cells were detected using DAPI, FITC, and TexasRed channels respectively. Maximum projection images were created from Z-stacks and analyzed as described in Methods. Multiple read-outs were generated characterizing spheroid area, diameter, intensities, and cell viability. In addition, cells inside each spheroid were counted using a nuclear stain. […] Suspended cells were plated into U-shape 384 well plates using a Biomek i7 automated liquid handler, incubated for 48 hours, and then treated with compounds, stained, and imaged. The protocols for compound additions, media, and staining included gentle media dispensing processes. Consecutively, tumoroids were cultured and monitored by automated imaging. Additionally, use of a collaborative robot enabled moving plates from the incubator to the imaging system, where transmitted light imaging or fluorescent imaging protocols were initiated.
For screening the compound library, maximum projection images may be employed. Spheroid disintegration is visible as an increase of spheroid size, in contrast to nicely shaped, round images of intact spheroids. Tumoroid disintegration can be described by several measurements: for example, increase in organoid area/diameter. Most accurate measurements may be done by counting cells or nuclei inside organoids using maximum projection images. […] Disintegrated tumoroids are made up of cells which are not held together in a tight aggregate but instead are loosely piled up in the well bottom resulting in 1) an increased projected area and 2) an increase in nuclear count in the projection images.
Simple nuclei count analysis in projection images was used as a reliable surrogate marker for organoid integrity/dis-integration.
For test [3], the system named is TU-BcX-4IC tumoroids. The experiment in a line: Secondary follow-up 3D assay, 7-point concentration curves, tumoroid disintegration measurement. It counts as cell-based, human. Particulars: 3D assay, 7-point concentration curves, 5 days, nuclear count in projection images. The method, then: 10 compounds, including panobinostat, carfilzomib, and bortezomib were tested across 7 concentrations in the 1-10000 nM range. Spheroids were treated for 5 days with these compounds, then stained as described above (FIG. 4). […] EC50 values (Table 2) were determined using tumoroid disintegration measurement (nuclear count in projection images).
Automated staining of spheroids was performed for one hour. After staining, dye solution was replaced with 1×PBS.

In test [4] the test system is TU-BcX-4IC 2D culture. The experiment in a line: Imaging read-out, 2D culture. The following applies: Homo sapiens, 120 h, read-out: EC50, Imaging 2D.
Experimental: (§1) Cell metabolism may be measured by ATP level as another readout for effects of anti-cancer drugs that is related to cytotoxicity. In the present examples, a subset of 12 compounds were used for evaluation of compound effects, using the CellTiter-Glo 3D assay (Promega), which detects ATP levels. Compounds may be tested using 7 point 5× dilutions starting from 100 uM. In the present examples, compound effects on 2D culture and 3D cultures were compared, using imaging and CellTiter-Glo 3D methods. Cultures were set up in parallel, using same cell number (2000). Cultures were allowed to grow for 48 hours, then treated with compounds for 5 days.
(§2) Images were analyzed using MetaXpress Software (Molecular Devices). Count Nuclei or Cell Scoring application modules were used for nuclear count live/dead assessment, or evaluation of cell number positive for specific markers. Output measurements included spheroid width, spheroid area, average intensity for calcein AM or EthD-III, counts of all nuclei, and evaluation of average nuclear size and average intensities. In addition, calcein AM-positive cells were counted, and their area and intensity values were recorded. In addition to cell count, areas and intensities could be determined for live (EthD-III negative) and dead (EthD-III positive) cells.
Test [5] relates to TU-BcX-4IC 3D cultures. The experiment in a line: CellTiter-Glo 3D ATP assay, 3D culture. The following applies: Homo sapiens, TU-BcX-4IC, 120 h, read-out: EC50, ATP 3D. In general terms: ATP-based viability assays read luminescence as a measure of living cells.
Experimental: (§3) Cell metabolism may be measured by ATP level as another readout for effects of anti-cancer drugs that is related to cytotoxicity. […] Compounds may be tested using 7 point 5× dilutions starting from 100 uM. In the present examples, compound effects on 2D culture and 3D cultures were compared, using imaging and CellTiter-Glo 3D methods. Cultures were set up in parallel, using same cell number (2000). Cultures were allowed to grow for 48 hours, then treated with compounds for 5 days.
Test [6] relates to TU-BcX-4IC 2D culture. The experiment in a line: CellTiter-Glo 3D ATP assay, 2D culture. Particulars: Homo sapiens, TU-BcX-4IC, 120 h, read-out: EC50, ATP 2D.
Experimental: as §3
For test [7], the system named is TU-BcX-4IC 3D cultures. Nature of the test: Imaging read-out, 3D culture. Particulars: Homo sapiens, 120 h, read-out: EC50, Imaging 3D.
Experimental: as §1, §2
The mark [8] stands for this setting: read-out: Effective concentration, 3D tumoroids, 5 days treatment, tumoroid integrity by nuclear count, tested at 10 nM to 100 uM.
Setting [9] is: Homo sapiens, TU-BcX-4IC, 120 h, read-out: EC50.
Setting [10] is: read-out: Effective concentration.

Where a name gives a salt, the structure may show the parent alone. Read-outs that look alike come from different tables or passages of the source. *1 amine or outer side, *2 acyl side, *3 side chain or, on linkers, in order; H or OH if unused. Where a SMILES comes first, the peptide text is derived from it. Bridges are numbered along the chain shown (N, C = ends). Roman numbers before positions name the chains, in order. [ ]: non-standard residue; d: D form. Actinocin(9to1) = Cc1c2oc3c(C)ccc(C(=O)[*:1])c3nc-2c(C(=O)[*:2])c(N)c1=O; NMeV = CN[C@H](C(=O)O)C(C)C; Sar = CNCC(=O)O

What is called EC50 is the concentration at which the effect is half-maximal.

In the case of `CCN1CCN(Cc2ccc(Nc3ncc(F)c(-c4cc(F)c5nc(C)n(C(C)C)c5c4)n3)nc2)CC1` [Abemaciclib], the “Distance Score” value in test [1] is on record as 5.819. Same read-out and setting: in the case of `CN(C)C/C=C/C(=O)Nc1cc2c(Nc3ccc(F)c(Cl)c3)ncnc2cc1O[C@H]1CCOC1` [Afatinib] it was 5.047. For `Cc1nc(NC(=O)N2CCC[C@H]2C(N)=O)sc1-c1ccnc(C(C)(C)C(F)(F)F)c1` [Alpelisib], in test [1], the “Distance Score” value worked out at 5.834. The “Viability HIT?” value in test [2] is recorded as “yes”. With `Cn1cc(-c2cc3c(N4CCN(c5ncc([C@@](C)(N)c6ccc(F)cc6)cn5)CC4)ncnn3c2)cn1` [Avapritinib], the “Distance Score” value in test [1] is given as 5.386. The “Viability HIT?” value in test [2] is “no”. Consider `O=C(/C=C/c1cccc(S(=O)(=O)Nc2ccccc2)c1)NO` [Belinostat], for which, in test [1], the “Distance Score” value was found to be 5.348. The minimal effective concentration in test [2] (setting [8]) stood at 0.1 µM. Besides, in test [2], the “Viability HIT?” value is “yes”.

In the case of `COc1cc(Nc2c(C#N)cnc3cc(OCCCN4CCN(C)CC4)c(OC)cc23)c(Cl)cc1Cl` [Bosutinib], in test [2] (setting [8]), the minimal effective concentration worked out at 0.1 µM.

Take `COc1cc(N2CCC(N3CCN(C)CC3)CC2)ccc1Nc1ncc(Cl)c(Nc2ccccc2P(C)(C)=O)n1` [Brigatinib]: the “Distance Score” value in test [1] was found to be 5.771. Also, in test [2] (setting [8]), the minimal effective concentration was 1 µM. For the compound `Cc1ccc(-c2cc(C(F)(F)F)nn2-c2ccc(S(N)(=O)=O)cc2)cc1` [Celecoxib], in test [3], the EC50 entry is reported as “no effect”. For the compound `C[C@@H](Oc1cc(-c2cnn(C3CCNCC3)c2)cnc1N)c1c(Cl)ccc(F)c1Cl` [Crizotinib], the EC50 in test [3] (setting [9]) was above 1000 nM.

Regarding `Cc1c2oc3c(C)ccc(C(=O)N[C@@H]4C(=O)N[C@H](C(C)C)C(=O)N5CCC[C@H]5C(=O)N(C)CC(=O)N(C)[C@@H](C(C)C)C(=O)O[C@@H]4C)c3nc-2c(C(=O)N[C@@H]2C(=O)N[C@H](C(C)C)C(=O)N3CCC[C@H]3C(=O)N(C)CC(=O)N(C)[C@@H](C(C)C)C(=O)O[C@@H]2C)c(N)c1=O` [Dactinomycin] (I: T[dV]P[Sar][NMeV] / II: T[dV]P[Sar][NMeV]; ester I:1-I:C, II:1-II:C; linker I:N-II:N via Actinocin(9to1)), the EC50 is below 10 nM in test [4], 5 nM in test [5], below 10 nM in test [6] and 33 nM in test [7]. The “Efficacy at low concentrations” value in test [2] (library screen, tumoroid integrity by nuclear count) is “efficacy at low concentrations”. Take `Cc1nc(Nc2ncc(C(=O)Nc3c(C)cccc3Cl)s2)cc(N2CCN(CCO)CC2)n1` [Dasatinib]: the minimal effective concentration in test [2] (setting [8]) is 0.1 µM. On to `COC(=O)N[C@@H](C)CNc1nccc(-c2cn(C(C)C)nc2-c2cc(Cl)cc(NS(C)(=O)=O)c2F)n1` [Encorafenib], for which the “Distance Score” value in test [1] is 5.516. The “Viability HIT?” value in test [2] was “no”. Consider `CN1CCN(c2ccc(C(=O)Nc3n[nH]c4ccc(Cc5cc(F)cc(F)c5)cc34)c(NC3CCOCC3)c2)CC1` [Entrectinib], for which the “Distance Score” value in test [1] came to 4.843. Further, in test [2], the “Viability HIT?” value is on record as “yes”. `COc1cccc2c1C(=O)c1c(O)c3c(c(O)c1C2=O)C[C@@](O)(C(=O)CO)C[C@@H]3O[C@H]1C[C@H](N)[C@@H](O)[C@H](C)O1` [Epirubicin hydrochloride]: the “Distance Score” value in test [1] came to 5.883. Besides, the minimal effective concentration in test [2] (setting [8]) came to 1 µM.

`Cc1cnc(Nc2ccc(OCCN3CCCC3)cc2)nc1Nc1cccc(S(=O)(=O)NC(C)(C)C)c1` [Fedratinib]: the minimal effective concentration in test [2] (setting [8]) is 1 µM. `C[C@]12CC[C@@H]3c4ccc(O)cc4C[C@@H](CCCCCCCCC[S+]([O-])CCCC(F)(F)C(F)(F)F)[C@H]3[C@@H]1CC[C@@H]2O` (stereo partly drawn) [Fulvestrant]: in test [2] (setting [8]), the minimal effective concentration worked out at 0.01 µM. On to `CCc1nc(C(N)=O)c(Nc2ccc(N3CCC(N4CCN(C)CC4)CC3)c(OC)c2)nc1NC1CCOCC1` [Gilteritinib], for which the “Distance Score” value in test [1] worked out at 5.239. Besides, in test [2] (setting [8]), the minimal effective concentration turned out to be 1 µM. In the case of `C=CC(=O)N1CCC[C@@H](n2nc(-c3ccc(Oc4ccccc4)cc3)c3c(N)ncnc32)C1` [Ibrutinib], the EC50 was 20200 nM in test [4], 15800 nM in test [5], 25000 nM in test [6] and around 20000 nM in test [7]. Take `CC(=O)[C@]1(O)Cc2c(O)c3c(c(O)c2[C@@H](O[C@H]2C[C@H](N)[C@H](O)[C@H](C)O2)C1)C(=O)c1ccccc1C3=O` [Idarubicin hydrochloride]: the EC50 was around 1000 nM in test [4], 145 nM in test [5], 67 nM in test [6] and 3930 nM in test [7]. Besides, the minimal effective concentration in test [2] (setting [8]) is 1 µM. As for `CC(C)C[C@H](NC(=O)CNC(=O)c1cc(Cl)ccc1Cl)B1OC(=O)C(CC(=O)O)(CC(=O)O)O1` [Ixazomib citrate], the minimal effective concentration in test [2] (setting [8]) came to 0.1 µM. With `O=C(Nc1cnn2ccc(N3CCC[C@@H]3c3cc(F)ccc3F)nc12)N1CC[C@H](O)C1` [Larotrectinib], the “Distance Score” value in test [1] is 5.667. Moreover, the “Viability HIT?” value in test [2] is “no”. `CO[C@@]12[C@H](COC(N)=O)C3=C(C(=O)C(C)=C(N)C3=O)N1C[C@@H]1N[C@@H]12` [Mitomycin]: the minimal effective concentration in test [2] (setting [8]) came to 1 µM. In the case of `Clc1ccc(C(c2ccccc2Cl)C(Cl)Cl)cc1` (stereo not drawn) [Mitotane], the minimal effective concentration in test [2] (setting [8]) was found to be 0.1 µM. In the case of `COC(=O)C[C@](O)(CCCC(C)(C)O)C(=O)O[C@@H]1C(OC)=C[C@]23CCCN2CCc2cc4c(cc2[C@H]13)OCO4` [Omacetaxine], the Effective concentration in test [2] (3D tumoroids, 5 days treatment, tumoroid integrity by nuclear count, tested at 10 nM to 100 uM) was 1 µM. For the same compound, in test [3] (read-out: EC50), the EC50 was below 100 nM.

For `C=CC(=O)Nc1cc(Nc2nccc(-c3cn(C)c4ccccc34)n2)c(OC)cc1N(C)CCN(C)C` [Osimertinib], in test [1], the “Distance Score” value worked out at 5.241. For the same compound, the “Viability HIT?” value in test [2] is given as “yes”.

`CC(=O)O[C@H]1C(=O)[C@@]2(C)[C@H]([C@H](OC(=O)c3ccccc3)[C@]3(O)C[C@H](OC(=O)[C@H](O)[C@@H](NC(=O)c4ccccc4)c4ccccc4)C(C)=C1C3(C)C)[C@]1(OC(C)=O)CO[C@@H]1C[C@@H]2O` [Paclitaxel]: in test [2] (setting [8]), the minimal effective concentration amounted to 1 µM. Further, in test [3] (setting [9]), the EC50 amounted to 2900 nM.

Turning to `Cc1ccc(C(=O)Nc2ccc(CN3CCN(C)CC3)c(C(F)(F)F)c2)cc1C#Cc1cnc2cccnn12` [Ponatinib], the minimal effective concentration in test [2] (setting [10]) is 0.1 µM. With `CNC(=O)c1cc(Oc2ccc(NC(=O)Nc3ccc(Cl)c(C(F)(F)F)c3)c(F)c2)ccn1` [Regorafenib], in test [2] (setting [8]), the minimal effective concentration was 0.1 µM. `O=C(/C=C\n1cnc(-c2cc(C(F)(F)F)cc(C(F)(F)F)c2)n1)NNc1cnccn1` [Selinexor]: the “Distance Score” value in test [1] was 5.004. Also, the “Viability HIT?” value in test [2] was “no”.

Take `CCN(CC)CCNC(=O)c1c(C)[nH]c(/C=C2\C(=O)Nc3ccc(F)cc32)c1C` [Sunitinib]: the EC50 in test [3] (setting [9]) worked out at 1700 nM. On to `Oc1ncc(N(CCCl)CCCl)c(O)n1` [Uracil mustard], for which, in test [2] (setting [10]), the minimal effective concentration worked out at 1 µM. Turning to `CCCCC(=O)OCC(=O)[C@]1(O)Cc2c(O)c3c(c(O)c2[C@@H](O[C@H]2C[C@H](NC(=O)C(F)(F)F)[C@H](O)[C@H](C)O2)C1)C(=O)c1c(OC)cccc1C3=O` [Valrubicin], in test [1], the “Distance Score” value was determined as 8.136. Besides, the “Viability HIT?” value in test [2] is recorded as “yes”. For `COc1cc2c(Nc3ccc(Br)cc3F)ncnc2cc1OCC1CCN(C)CC1` [Vandetanib], the “Distance Score” value in test [1] is 5.185. Also, in test [2] (setting [8]), the minimal effective concentration is 1 µM.

Take `CC1(C)CCC(CN2CCN(c3ccc(C(=O)NS(=O)(=O)c4ccc(NCC5CCOCC5)c([N+](=O)[O-])c4)c(Oc4cnc5[nH]ccc5c4)c3)CC2)=C(c2ccc(Cl)cc2)C1` [Venetoclax]: the “Distance Score” value in test [1] is 4.922. For the same compound, in test [2] (setting [8]), the minimal effective concentration is 1 µM. `CC[C@]1(O)C[C@@H]2CN(CCc3c([nH]c4ccccc34)[C@@](C(=O)OC)(c3cc4c(cc3OC)N(C)[C@H]3[C@@](O)(C(=O)OC)[C@H](OC(C)=O)[C@]5(CC)C=CCN6CC[C@]43[C@@H]65)C2)C1` [Vinblastine sulfate]: in test [2] (setting [8]), the minimal effective concentration amounted to 0.1 µM. As for `CC[C@]1(O)C[C@H]2CN(CCc3c([nH]c4ccccc34)[C@@](C(=O)OC)(c3cc4c(cc3OC)N(C=O)[C@H]3[C@@](O)(C(=O)OC)[C@H](OC(C)=O)[C@]5(CC)C=CCN6CC[C@]43[C@@H]65)C2)C1` [Vincristine sulfate], the minimal effective concentration in test [2] (setting [8]) was determined as 0.1 µM. Consider `O=C(CCCCCCC(=O)Nc1ccccc1)NO` [Vorinostat], for which the “Distance Score” value in test [1] was determined as 5.079. In test [2] (setting [8]), the minimal effective concentration was found to be 1 µM. Besides, the “Viability HIT?” value in test [2] was “no”. With Dabrafenib mesylate, the “Distance Score” value in test [1] is recorded as 6.249. Also, the “Viability HIT?” value in test [2] is “yes”.
